Data reported in patent US6274738A, “Carboxamide derivatives having aryl and thiazole rings” (Geron Corporation, priority 1997, dated 2001).

Target: T1, DNA primase (Homo sapiens, UniProt P49642+P49643)
T1 construct: using a nuclear extract comprising primase activity, as described above; endogenous in cells; host or cells: nuclear extract
Test: Primase activity assay (incorporation of radioactive dATP on poly(dT) template)
Assay type: biochemical
Details: approximate concentration at which 50% of the primase enzyme activity was inhibited; determined using the methods described herein; read-out: IC50 (primase-inhibiting properties)
Protocol: In the assay, primase was diluted with primase dilution buffer (50% glycerol, 50 mM Tris HCl (pH 8.0) 20 mM KCl, 1 mM EDTA, 1 mM βME) to achieve a selected reaction volume (typically, reactions were carried out in an overall volume of 60 μl). A typical 60 μl reaction volume further included 50 mM Tris HCl (pH 8.0); 20 mM KCl, 200 μg/ml BSA, 4 mM MgCl2, 2 mM fresh DTT, 2 mM rATP, 5 μCi ^32 P (800 Ci/mmol) or 2.5 μCi ^33 P (2,000 Ci/mMol) dATP, 10 μg/ml Poly (dT), and primase and polymerase α.
The recombinant 180 Kd human polymerase ax protein was isolated from a bacculovirally transduced SF9 cell as described in Wang et al. (1995) Methods in Enzymology 262: 77-84. Typically, about 0.05 μg of p180 and about 0.025 μg of a 1:1 mixture of p49/p58 primase subunits were used per reaction.
Several reactions were typically set up in parallel, although a single reaction can also be assessed. For example, a Zymate XP (Zymark Corporation; Hopkinton, Mass.) automated robot using Microlab 2200 (Hamilton; Reno, Nev.) pipeting station to transfer parallel samples to 96 well microtiter plate was used to set up several parallel simultaneous reactions.
Parallel reactions were incubated for 30 minutes at 30° C. 15 μl of each reaction was spotted into one well on a Unifilter plate (Whatman GF/C glass fiber filter bottom), typically using the automated system described. The filters were then air dried. The Unifilter plate was placed onto the vacuum chamber of a dot blot apparatus, and 200 μl of ice cold 5% TCA/20 mM sodium pyrophosphate wash was added to each well, and vacuum applied. Each filter was washed three times. 100 μl of an ice cold 70% ethanol wash was added then added to each well, and vacuum applied. The ethanol wash was repeated, and the filters allowed to air dry. Excess fluid was removed from the bottom of the plate. The bottom of the plate was sealed with a transparent sealer, and 50 μl of Microscint-20 scintillation fluid was added to each well, e.g., using a Biomek1000® (Beckman Instruments; Dallas, Tex.). The top of the plate was sealed with TOPSEAL-S® Microplate Heat Sealing Film and CPM were counted for each well using a topcount microplate scintillation counter (Packard; Downers Grove, Ill.) or Trilux Microbeta 1450 (Wallac; Gaithersburg, Md.).
An assay similar to Example 2 was also developed to measure primase activity. Although the assay is described below with reference to using a nuclear extract as the source for primase activity, one of skill will recognize that the assay can easily be adapted for purified or recombinant primase. Examples 1 and 2 provide a description of the buffers, nuclear extracts, etc.
The reagents were combined into one or more separate reaction mixtures, with the poly dT, nuclear extract, and ^32 dATP being added just before use. The reaction mixtures were incubated for 1 hour at 37° C. The reactions were spotted onto filters on a unifilter plate and treated as described in Example 2.
The primase modulator compounds show in FIG. 1 were determined to modulate primase activity in the assays shown above, using a nuclear extract comprising primase activity, as described above.
For primary screening, compounds were added at the beginning of the reaction with all reagents as described above. Compounds were tested at a concentration of 100 μM. Compounds were tested in duplicate reactions.
This concentration information was used to determine the approximate IC50 for the primase modulating agents described in FIG. 1. The extract/enzyme preparation for primase modulating agents was preincubated with the compound for 30 min at 37° C. prior to addition of the remaining reagents.
The example modulators are primase inhibitors. The IC50 s for the compounds indicated in FIG. 1 was the approximate concentration of the modulator at which 50% of the primase enzyme activity in a reaction mixture was inhibited by the modulator.

T1 sequence (P49642 whole entry): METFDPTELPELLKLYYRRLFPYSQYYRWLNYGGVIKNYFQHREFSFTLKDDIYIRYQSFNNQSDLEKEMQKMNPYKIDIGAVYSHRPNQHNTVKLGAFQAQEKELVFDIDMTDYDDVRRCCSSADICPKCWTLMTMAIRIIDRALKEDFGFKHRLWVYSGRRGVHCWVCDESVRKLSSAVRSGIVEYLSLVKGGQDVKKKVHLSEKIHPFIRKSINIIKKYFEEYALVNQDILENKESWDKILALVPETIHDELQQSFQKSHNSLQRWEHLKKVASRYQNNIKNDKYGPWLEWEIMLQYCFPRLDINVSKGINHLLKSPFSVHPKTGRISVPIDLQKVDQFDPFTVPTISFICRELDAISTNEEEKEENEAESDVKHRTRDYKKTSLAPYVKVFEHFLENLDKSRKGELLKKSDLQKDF
T1 sequence (P49643 whole entry): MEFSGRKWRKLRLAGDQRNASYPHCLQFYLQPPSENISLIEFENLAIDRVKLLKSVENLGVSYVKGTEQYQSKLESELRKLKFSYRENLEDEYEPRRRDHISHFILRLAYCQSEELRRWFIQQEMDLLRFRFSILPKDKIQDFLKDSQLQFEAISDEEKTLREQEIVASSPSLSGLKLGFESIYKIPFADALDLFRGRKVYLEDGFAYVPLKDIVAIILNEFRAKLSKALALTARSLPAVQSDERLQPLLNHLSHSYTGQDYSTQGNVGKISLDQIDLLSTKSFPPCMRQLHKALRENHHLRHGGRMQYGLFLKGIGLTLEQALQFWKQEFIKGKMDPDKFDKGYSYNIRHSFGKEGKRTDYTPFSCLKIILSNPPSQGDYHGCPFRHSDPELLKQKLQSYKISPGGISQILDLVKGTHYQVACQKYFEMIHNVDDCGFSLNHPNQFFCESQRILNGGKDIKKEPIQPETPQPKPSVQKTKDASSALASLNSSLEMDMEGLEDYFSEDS
T1 sequence (P09884 whole entry partner): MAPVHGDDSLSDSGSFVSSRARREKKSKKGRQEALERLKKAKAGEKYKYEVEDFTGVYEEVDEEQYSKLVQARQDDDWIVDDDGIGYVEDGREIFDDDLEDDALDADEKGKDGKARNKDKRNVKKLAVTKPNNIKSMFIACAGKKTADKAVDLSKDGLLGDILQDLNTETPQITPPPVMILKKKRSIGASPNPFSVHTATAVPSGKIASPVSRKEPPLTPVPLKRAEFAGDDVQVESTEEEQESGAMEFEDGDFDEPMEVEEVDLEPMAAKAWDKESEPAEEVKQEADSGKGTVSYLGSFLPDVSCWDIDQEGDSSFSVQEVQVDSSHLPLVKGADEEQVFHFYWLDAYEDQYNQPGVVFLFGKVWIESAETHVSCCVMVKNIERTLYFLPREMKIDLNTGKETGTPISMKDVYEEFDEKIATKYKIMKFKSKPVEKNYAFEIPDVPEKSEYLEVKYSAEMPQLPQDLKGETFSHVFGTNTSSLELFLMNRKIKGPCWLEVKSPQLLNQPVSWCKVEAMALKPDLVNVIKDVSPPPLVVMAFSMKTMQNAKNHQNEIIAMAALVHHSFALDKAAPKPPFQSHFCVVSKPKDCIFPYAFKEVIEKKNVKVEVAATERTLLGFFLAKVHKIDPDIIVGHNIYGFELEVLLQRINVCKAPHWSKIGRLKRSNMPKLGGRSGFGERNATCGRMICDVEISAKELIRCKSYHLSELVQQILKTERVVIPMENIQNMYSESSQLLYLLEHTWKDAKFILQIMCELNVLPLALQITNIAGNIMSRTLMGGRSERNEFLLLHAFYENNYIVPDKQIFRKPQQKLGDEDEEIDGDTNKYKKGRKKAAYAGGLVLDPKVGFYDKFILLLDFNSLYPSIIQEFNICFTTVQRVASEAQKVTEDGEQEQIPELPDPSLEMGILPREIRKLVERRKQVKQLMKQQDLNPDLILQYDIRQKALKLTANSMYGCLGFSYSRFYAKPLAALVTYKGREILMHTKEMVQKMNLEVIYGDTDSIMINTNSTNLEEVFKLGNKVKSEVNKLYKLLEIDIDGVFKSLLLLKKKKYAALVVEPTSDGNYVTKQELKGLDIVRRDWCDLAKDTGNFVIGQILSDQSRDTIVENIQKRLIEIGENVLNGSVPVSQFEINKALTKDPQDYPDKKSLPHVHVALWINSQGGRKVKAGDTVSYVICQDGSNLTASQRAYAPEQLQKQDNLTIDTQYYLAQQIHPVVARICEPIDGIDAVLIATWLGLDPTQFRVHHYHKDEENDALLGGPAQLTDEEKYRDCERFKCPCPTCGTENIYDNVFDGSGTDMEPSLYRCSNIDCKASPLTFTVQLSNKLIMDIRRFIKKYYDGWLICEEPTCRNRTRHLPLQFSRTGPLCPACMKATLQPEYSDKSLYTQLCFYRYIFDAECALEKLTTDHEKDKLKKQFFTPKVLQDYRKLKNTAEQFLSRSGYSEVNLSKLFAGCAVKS
T1 sequence (Q14181 whole entry partner): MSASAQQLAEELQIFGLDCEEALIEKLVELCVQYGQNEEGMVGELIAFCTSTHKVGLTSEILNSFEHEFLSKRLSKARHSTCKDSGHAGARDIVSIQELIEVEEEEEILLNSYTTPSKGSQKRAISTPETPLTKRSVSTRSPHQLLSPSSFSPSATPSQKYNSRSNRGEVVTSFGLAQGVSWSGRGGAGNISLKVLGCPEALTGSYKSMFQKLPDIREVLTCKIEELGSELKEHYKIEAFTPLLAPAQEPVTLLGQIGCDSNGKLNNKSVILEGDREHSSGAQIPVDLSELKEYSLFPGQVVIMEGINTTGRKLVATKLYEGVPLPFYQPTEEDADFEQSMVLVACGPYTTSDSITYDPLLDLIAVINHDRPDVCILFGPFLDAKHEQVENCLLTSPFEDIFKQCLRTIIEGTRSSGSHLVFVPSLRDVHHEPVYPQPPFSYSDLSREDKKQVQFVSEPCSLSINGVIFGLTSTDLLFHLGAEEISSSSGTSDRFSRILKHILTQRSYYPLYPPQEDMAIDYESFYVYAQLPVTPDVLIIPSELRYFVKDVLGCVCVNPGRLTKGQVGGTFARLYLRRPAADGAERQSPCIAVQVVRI

Row | Structure (SMILES) | IC50 [µM]
1 | O=C(Nc1ccccc1Cl)c1csc(-c2cccnc2)n1 [Compound 2] | ~30
2 | O=C(Nc1cccc(C(F)(F)F)c1)c1csc(-c2ccncc2)n1 [Compound 4] | ~37
3 | O=C(Nc1ccc(C(F)(F)F)cc1)c1csc(-c2ccncc2)n1 [Compound 5] | ~44
4 | O=C(Nc1ccc(Cl)cc1)c1csc(-c2ccncc2)n1 [Compound 6] | ~37
5 | O=C(Nc1ccc(Br)cc1)c1csc(-c2ccncc2)n1 [Compound 7] | ~63
6 | O=C(Nc1ccc(F)cc1F)c1csc(-c2ccncc2)n1 [Compound 8] | ~19
